According to US20250129067A1 (Progentos Therapeutics, Inc., priority 2021, published 2025):

What was measured:
[1] = system: Oligodendrocyte progenitor cells (OPCs); assay: In vitro OPC differentiation assay, GPR17 expression (immunocytochemistry); details: 3 μM (10× concentration, final 0.3 μM); 72 hours; fold change over vehicle
Experimental: To assess the effects of the PDGFRα inhibitors on OPC differentiation, primary OPCs were cultured and exposed to compounds. The number of newly generated oligodendrocytes was assessed by monitoring GPR17 expression. GPR17 is preferentially expressed in actively differentiating oligodendrocytes, allowing them to be distinguished from precursors and more differentiated oligodendrocytes.
Cortices from postnatal day (P) 1-3 rats were dissected and collected into ice cold Hank's Balanced Salt Solution (HBSS). […] Briefly, the cortical cell suspension was centrifuged and washed with buffer (0.5% BSA in PBS) and labeled with Anti-A2B^5 MicroBeads (10 μL beads per 1×10^7 cells) for 15 minutes at 4° C. Following the incubation, cells were washed once with BSA buffer to remove unlabeled beads. A2B^5 positive cells were eluted on the column using the AutoMACS® (Miltenyi, as per manufacturer's protocol using “Possel-s” program). Eluted cells were further washed twice with OPC growth media. Cell counts were performed using Countess III cell counter (ThermoFisher; AMQAX2000) and cells were plated.
The plates were allowed to sit at room temperature for 15 minutes to ensure proper dispersion of cells in a well. The plates were then transferred to the incubator (37° C.; 5% CO2).
Cells were then incubated for 72 hours at 37° C., 5% CO2 before immunostaining for GPR17 marker expression.
Following 72 hours in culture, cells were fixed with 4% paraformaldehyde for 15 minutes and then washed three times in Dulbecco's phosphate buffered saline (DPBS). Prior to immunostaining, cells were treated with a blocking solution (10% normal goat serum containing 1% BSA and 0.1% Triton® X-100 in DPBS) for 15 minutes at room temperature. Primary antibody (anti-GPR17 at 1:2000; Origene TA811615) was applied to cells overnight at 4° C. in incubation solution containing 1% normal goat serum, 1% BSA, and 0.1% Triton X-100 in DPBS. […] The secondary antibody was applied in incubation solution for 2 hours at room temperature, protected from light.
The number of differentiated GPR17+ cells was normalized to the total nuclei count and percent differentiated GPR17+ cells were reported. Statistical analysis was done using one-way ANOVA with multiple comparisons and post-hoc Tukey test in GraphPad Prism (GraphPad Software).

[2] = target: PDGFRα (Homo sapiens (Human), UniProt P16234); assay: PDGFRα kinase enzyme assay (Promega PDGFRα Kinase Enzyme System, ADP-Glo); type: biochemical; details: 11-point dose response, 10,000 nM to 0.169 nM; 150 uM ATP; BLQ = below limit of quantitation; read-out: IC50 Values on PDGFRα Kinase Inhibition, IC50
Chain of PDGFRα (P16234 24-1089): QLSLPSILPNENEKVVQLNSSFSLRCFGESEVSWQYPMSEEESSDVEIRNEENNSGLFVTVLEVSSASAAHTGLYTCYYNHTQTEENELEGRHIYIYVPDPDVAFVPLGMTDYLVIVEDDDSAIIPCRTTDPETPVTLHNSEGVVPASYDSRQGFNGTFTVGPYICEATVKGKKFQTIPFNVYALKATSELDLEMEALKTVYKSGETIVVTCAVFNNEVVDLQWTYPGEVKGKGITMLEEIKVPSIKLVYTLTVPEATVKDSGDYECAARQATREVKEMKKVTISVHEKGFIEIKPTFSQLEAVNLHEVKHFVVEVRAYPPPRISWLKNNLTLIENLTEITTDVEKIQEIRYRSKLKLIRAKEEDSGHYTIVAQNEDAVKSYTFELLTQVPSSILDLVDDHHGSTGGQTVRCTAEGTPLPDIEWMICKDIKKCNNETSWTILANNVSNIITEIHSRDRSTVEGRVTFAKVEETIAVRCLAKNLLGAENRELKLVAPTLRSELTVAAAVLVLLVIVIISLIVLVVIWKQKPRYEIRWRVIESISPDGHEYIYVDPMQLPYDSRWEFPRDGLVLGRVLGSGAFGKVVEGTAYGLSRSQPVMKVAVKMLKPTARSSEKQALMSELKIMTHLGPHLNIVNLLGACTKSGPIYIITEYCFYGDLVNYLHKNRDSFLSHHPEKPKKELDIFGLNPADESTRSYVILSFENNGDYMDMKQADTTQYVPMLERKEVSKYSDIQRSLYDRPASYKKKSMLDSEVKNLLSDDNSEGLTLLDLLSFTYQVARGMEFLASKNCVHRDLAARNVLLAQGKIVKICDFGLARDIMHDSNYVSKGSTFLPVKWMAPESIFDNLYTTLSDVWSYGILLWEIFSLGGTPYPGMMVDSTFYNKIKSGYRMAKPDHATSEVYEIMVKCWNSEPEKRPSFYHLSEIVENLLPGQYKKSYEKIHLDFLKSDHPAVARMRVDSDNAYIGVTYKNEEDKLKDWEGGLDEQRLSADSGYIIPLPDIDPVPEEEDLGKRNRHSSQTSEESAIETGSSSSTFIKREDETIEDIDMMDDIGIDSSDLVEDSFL
Outline: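 Read-out was ADP-Glo: remaining ATP depleted, ADP converted to luminescence and compared with a standard curve.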

Row | GPR17 Fold Induction (Over Vehicle; 3 μM) [1] | IC50 [2] [nM] | Structure (SMILES)
1 | 1.55 | > 10000 | CN1CCC(c2ccc3c(N4CCN(C(=O)OC(C)(C)C)CC4)cnn3c2)CC1 [Compound 225, tert-butyl 4-(6-(1-methylpiperidin-4-yl)pyrazolo[1,5-a]pyridin-3-yl)piperazine-1-carboxylate]
2 | 11.69 | 1420 | Cn1cnc(-c2ccc3c(N4CCN(C(=O)OC(C)(C)C)CC4)cnn3c2)c1 [Compound 226, tert-butyl 4-(6-(1-methyl-1H-imidazol-4-yl)pyrazolo[1,5-a]pyridin-3-yl)piperazine-1-carboxylate]
3 | 9.02 | 268 | COCCn1cnc(-c2ccc3c(N4CCN(C(=O)OC(C)(C)C)CC4)cnn3c2)c1 [Compound 227, tert-butyl 4-(6-(1-(2-methoxyethyl)-1H-imidazol-4-yl)pyrazolo[1,5-a]pyridin-3-yl)piperazine-1-carboxylate]
4 | 1.19 | > 10000 | COCCn1cncc1-c1ccc2c(N3CCN(C(=O)OC(C)(C)C)CC3)cnn2c1 [Compound 228, tert-butyl 4-(6-(1-(2-methoxyethyl)-1H-imidazol-5-yl)pyrazolo[1,5-a]pyridin-3-yl)piperazine-1-carboxylate]
5 | 10.61 | 363 | CC(C)(C)OC(=O)N1CCN(c2cnn3cc(-c4cn(CCO)cn4)ccc23)CC1 [Compound 229, tert-butyl 4-(6-(1-(2-hydroxyethyl)-1H-imidazol-4-yl)pyrazolo[1,5-a]pyridin-3-yl)piperazine-1-carboxylate]
6 | 0.97 | > 10000 | CC(C)(C)OC(=O)N1CCN(c2cnn3cc(-c4cncn4CCO)ccc23)CC1 [Compound 230, tert-butyl 4-(6-(1-(2-hydroxyethyl)-1H-imidazol-5-yl)pyrazolo[1,5-a]pyridin-3-yl)piperazine-1-carboxylate]
7 | 9.34 | 395 | CC(C)(C)OC(=O)N1CCN(c2cnn3cc(-c4cn(CCCN5CCOCC5)cn4)ccc23)CC1 [Compound 231, tert-butyl 4-(6-(1-(3-morpholinopropyl)-1H-imidazol-4-yl)pyrazolo[1,5-a]pyridin-3-yl)piperazine-1-carboxylate]
8 | 1.03 | > 10000 | CC(C)(C)OC(=O)N1CCN(c2cnn3cc(-c4cncn4CCCN4CCOCC4)ccc23)CC1 [Compound 232, tert-butyl 4-(6-(1-(3-morpholinopropyl)-1H-imidazol-5-yl)pyrazolo[1,5-a]pyridin-3-yl)piperazine-1-carboxylate]
9 | 6.03 | 696 | CC(C)(C)OC(=O)N1CCN(c2cnn3cc(-c4cnn5c4CCCC5)ccc23)CC1 [Compound 236, tert-butyl 4-(4,5,6,7-tetrahydro-[3,6′-bipyrazolo[1,5-a]pyridin]-3′-yl)piperazine-1-carboxylate]
10 | 0.95 | > 10000 | Cn1nnc(-c2ccc3c(N4CCN(C(=O)OC(C)(C)C)CC4)cnn3c2)n1 [Compound 237, tert-butyl 4-(6-(2-methyl-2H-tetrazol-5-yl)pyrazolo[1,5-a]pyridin-3-yl)piperazine-1-carboxylate]
11 | 1.88 | > 10000 | Cn1cc(-c2ccc3c(N4CCN(c5ncnn5Cc5ccccc5)CC4)cnn3c2)cn1 [Compound 239, 3-(4-(1-benzyl-1H-1,2,4-triazol-5-yl)piperazin-1-yl)-6-(1-methyl-1H-pyrazol-4-yl)pyrazolo[1,5-a]pyridine]
12 | 4.67 | 9410 | CC1CN(C(=O)OC(C)(C)C)CCN1c1cnn2cc(-c3cnn(C)c3)ccc12 (stereo not shown) [Compound 240, tert-butyl 3-methyl-4-(6-(1-methyl-1H-pyrazol-4-yl)pyrazolo[1,5-a]pyridin-3-yl)piperazine-1-carboxylate]
13 | 2.24 | > 10000 | Cn1cc(-c2ccc3c(C4=CCC(CCc5ccccc5)CC4)cnn3c2)cn1 (stereo not shown) [Compound 242, 6-(1-methyl-1H-pyrazol-4-yl)-3-(4-phenethylcyclohex-1-en-1-yl)pyrazolo[1,5-a]pyridine]
14 | 0.62 | > 10000 | Cn1cc(-c2ccc3c(C4=CCC(COc5ccccc5)CC4)cnn3c2)cn1 (stereo not shown) [Compound 243, 1-methyl-4-{3-[4-(phenoxymethyl)cyclohex-1-en-1-yl]pyrazolo[1,5-a]pyridin-6-yl}pyrazole]
15 | 4.76 | 2140 | Cn1cc(-c2ccc3c(NCC(=O)Nc4ncc(Cc5ccccc5)cn4)cnn3c2)cn1 [Compound 244, N-(5-benzylpyrimidin-2-yl)-2-((6-(1-methyl-1H-pyrazol-4-yl)pyrazolo[1,5-a]pyridin-3-yl)amino) acetamide]
16 | 5.22 | > 10000 | Cn1cc(-c2ccc3c(N4CCN(c5nc(Cc6ccccc6)ns5)CC4)cnn3c2)cn1 [Compound 245, 3-benzyl-5-(4-(6-(1-methyl-1H-pyrazol-4-yl)pyrazolo[1,5-a]pyridin-3-yl)piperazin-1-yl)-1,2,4-thiadiazole]
17 | 3.04 | 937 | Cn1cc(-c2ccc3c(N4CCN(c5ncc(C(N)c6ccc(F)cc6)cn5)CC4)cnn3c2)cn1 (stereo not shown) [Compound 246, 1-(4-fluorophenyl)-1-(2-{4-[6-(1-methyl-1H-pyrazol-4-yl)pyrazolo[1,5-a]pyridin-3-yl]piperazin-1-yl}pyrimidin-5-yl)methanamine]
18 | 1.79 | 674 | CC(C)N(C)C(=O)N1CCN(c2cnn3cc(-c4cnn(C)c4)ccc23)CC1 [Compound 252, N-isopropyl-N-methyl-4-[6-(1-methyl-1H-pyrazol-4-yl)pyrazolo[1,5-a]pyridin-3-yl]piperazine-1-carboxamide]
19 | 0.97 | > 10000 | COc1ccc(CN2CCN(c3cnn4cc(-c5cnn(C)c5)ccc34)CC2)cc1 [Compound 253, 3-[4-(4-methoxybenzyl)piperazin-1-yl]-6-(1-methyl-1H-pyrazol-4-yl)pyrazolo[1,5-a]pyridine]
20 | 2.69 | > 10000 | COc1ccc2c(N3CCN(c4ncc(Cc5ccccc5)cn4)CC3)cnn2c1 [Compound 259, 3-[4-(5-benzylpyrimidin-2-yl)piperazin-1-yl]-6-methoxypyrazolo-[1,5-a]pyridine]
21 | 2.61 | > 10000 | Cn1cc(-c2ccc3c(N4CCN(c5ncc(C(F)(F)c6ccc(F)cc6)cn5)CC4)cnn3c2)cn1 [Compound 262, 3-(4-(5-(difluoro (4-fluorophenyl)methyl)pyrimidin-2-yl)piperazin-1-yl)-6-(1-methyl-1H-pyrazol-4-yl)pyrazolo[1,5-a]pyridine]
22 | 2.11 | 2700 | C[C@H](c1ccc(Cl)cc1)N(C)C(=O)N1CCN(c2cnn3cc(-c4cnn(C)c4)ccc23)CC1 [Compound 276, (R)—N-(1-(4-chlorophenyl)ethyl)-N-methyl-4-(6-(1-methyl-1H-pyrazol-4-yl)pyrazolo[1,5-a]pyridin-3-yl)piperazine-1-carboxamide]
23 | 6.13 | 1400 | CN(Cc1ccc(Cl)cc1)C(=O)N1CCN(c2cnn3cc(-c4cnn(C)c4)ccc23)CC1 [Compound 278, N-(4-chlorobenzyl)-N-methyl-4-[6-(1-methyl-1H-pyrazol-4-yl)pyrazolo[1,5-a]pyridin-3-yl]piperazine-1-carboxamide]
24 | 3.05 | 6180 | Cn1cc(-c2ccc3c(N4CCN(C(=O)OCc5ccccc5C(N)=O)CC4)cnn3c2)cn1 [Compound 280, 2-carbamoylbenzyl 4-(6-(1-methyl-1H-pyrazol-4-yl)pyrazolo[1,5-a]pyridin-3-yl)piperazine-1-carboxylate]
25 | 11.42 | 303 | Cn1cc(-c2ccc3c(N4CCN(C(=O)OCc5ccccc5C#N)CC4)cnn3c2)cn1 [Compound 281, 2-cyanobenzyl 4-(6-(1-methyl-1H-pyrazol-4-yl)pyrazolo[1,5-a]pyridin-3-yl)piperazine-1-carboxylate]
26 | 6.21 | > 10000 | Cn1cc(-c2ccc3c(N4CCN(c5ncc(C(=O)C(F)(F)F)cn5)CC4)cnn3c2)cn1 [Compound 284, 2,2,2-trifluoro-1-(2-(4-(6-(1-methyl-1H-pyrazol-4-yl)pyrazolo[1,5-a]pyridin-3-yl)piperazin-1-yl)pyrimidin-5-yl)ethan-1-one]
27 | 6.20 | 7620 | Cn1cc(-c2ccc3c(N4CCN(c5ncc(C(O)C(F)(F)F)cn5)CC4)cnn3c2)cn1 (stereo not shown) [Compound 285, 2,2,2-trifluoro-1-(2-{4-[6-(1-methyl-1H-pyrazol-4-yl)pyrazolo[1,5-a]pyridin-3-yl]piperazin-1-yl}pyrimidin-5-yl)ethanol]
28 | 4.95 | 1790 | CC(O)C(O)c1cnc(N2CCN(c3cnn4cc(-c5cnn(C)c5)ccc34)CC2)nc1 (stereo not shown) [Compound 286, 1-(2-(4-(6-(1-methyl-1H-pyrazol-4-yl)pyrazolo[1,5-a]pyridin-3-yl)piperazin-1-yl)pyrimidin-5-yl)propane-1,2-diol]
29 | 6.48 | 2470 | CCC(O)c1cnc(N2CCN(c3cnn4cc(-c5cnn(C)c5)ccc34)CC2)nc1 (stereo not shown) [Compound 287, 1-(2-{4-[6-(1-methyl-1H-pyrazol-4-yl)pyrazolo[1,5-a]pyridin-3-yl]piperazin-1-yl}pyrimidin-5-yl)propan-1-ol]
